We go through 22 compounds from US12145927B2 (BRISTOL-MYERS SQUIBB COMPANY, priority 2018, dated 2024).

Where “and” joins values, the source holds several entries; their conditions need not be identical. Equal entries are not always repeated. A value given as a limit tells only on which side of the number the result lay.

T1 sequence (P14902 whole entry): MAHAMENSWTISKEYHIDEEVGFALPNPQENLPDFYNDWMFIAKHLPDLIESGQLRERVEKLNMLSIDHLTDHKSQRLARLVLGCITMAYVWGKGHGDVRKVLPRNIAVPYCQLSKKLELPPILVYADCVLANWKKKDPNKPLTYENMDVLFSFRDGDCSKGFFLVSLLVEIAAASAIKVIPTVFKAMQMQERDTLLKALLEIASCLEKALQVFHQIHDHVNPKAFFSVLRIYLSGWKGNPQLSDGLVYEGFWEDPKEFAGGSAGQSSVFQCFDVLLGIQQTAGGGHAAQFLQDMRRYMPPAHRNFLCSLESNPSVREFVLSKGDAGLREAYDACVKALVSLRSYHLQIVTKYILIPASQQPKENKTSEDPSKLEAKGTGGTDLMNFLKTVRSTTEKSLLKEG

This assay addresses T1, human IDO1 (Homo sapiens, UniProt P14902).
T1 construct: expressed in transfected cells
The experiment in a line: IDO inhibition assay in human IDO1/HEK293 cells (IDO1 HEK Human). It is filed as cell-based. As to conditions: HEK293 cells stably expressing human IDO1; 20 hours incubation; absorbance at 490 nm after Ehrlich reagent. Here is the method:
HEK293 cells were transfected with a pCDNA-based mammalian expression vector harboring human IDO1 cDNA (NM 002164.2) by electroporation. They were cultured in medium (DMEM with 10% FBS) containing 1 mg/ml G418 for two weeks. Clones of HEK293 cells that stably expressed human IDO1 protein were selected and expanded for IDO inhibition assay.
The human IDO1/HEK293 cells were seeded at 10,000 cells per 50 μL per well with RPMI/phenol red free media contains 10% FBS in a 384-well black wall clear bottom tissue culture plate (Matrix Technologies LLC) 100 nL of certain concentration of compound was then added to each well using ECHO liquid handling systems. The cells were incubated for 20 hours in 37° C. incubator with 5% CO2.
The compound treatments were stopped by adding trichloroacetic acid (Sigma-Aldrich) to a final concentration at 0.2%. The cell plate was further incubated at 50° C. for 30 minute. The equal volume supernatant (20 μL) and 0.2% (w/v) Ehrlich reagent (4-dimethylaminobenzaldehyde, Sigma-Aldrich) in glacial acetic acid were mixed in a new clear bottom 384-well plate. This plate was then incubated at RT for 30 minute. The absorbance at 490 nm was measured on Envision plate reader.
Compound IC50 values were calculated using the counts of 500 nM of a reference standard treatment as one hundred percent inhibition, and counts of no compound but DMSO treatment as zero percent inhibition.
In the case of `C=C[C@H]1Oc2c(NC(=O)Nc3ccc(C)cc3)cc(-c3ccccc3-c3nnn[nH]3)cc2[C@@H]1c1ccccc1` (racemic) [Example 85, (+/−)-1-((trans)-5-(2-(1H-tetrazol-5-yl)phenyl)-3-phenyl-2-vinyl-2,3-dihydrobenzofuran-7-yl)-3-(p-tolyl)urea], the half-maximal inhibitory concentration (IC50) (in general, the midpoint of a concentration-inhibition curve) came out at 32 nM.

As for `Cc1ccc(CC(=O)Nc2cc(-c3ccccc3-c3nnn[nH]3)cc3c2OCCCC3c2ccccc2)cc1` (racemic) [Example 2-1, N-(7-(2-(1H-tetrazol-5-yl)phenyl)-5-phenyl-2,3,4,5-tetrahydrobenzo[b]oxepin-9-yl)-2-(p-tolyl)acetamide], the IC50 came to 98.2 nM.

On to `c1ccc(C2CCCOc3c(Nc4nc5ccccc5s4)cc(-c4ccccc4-c4nnn[nH]4)cc32)cc1` (single isomer, unassigned) [64 (En. 2), N-(7-(2-(1H-tetrazol-5-yl)phenyl)-5-phenyl-2,3,4,5-tetrahydrobenzo[b]oxepin-9-yl) benzo[d]thiazol-2-amine], for which the IC50 is 17 nM. Against the preceding compound, the IC50 is about 5.8-fold lower.

Regarding `Cc1ccc(-c2nnn[nH]2)c(-c2cc(Nc3ccc(OC(F)F)cc3)c3c(c2)C(c2ccccc2)CCCO3)c1` (single isomer, unassigned) [Example 79, N-(4-(difluoromethoxy)phenyl)-7-(5-methyl-2-(1H-tetrazol-5-yl)phenyl)-5-phenyl-2,3,4,5-tetrahydrobenzo[b]oxepin-9-amine], the IC50 was 33.5 nM.

Consider `Cc1ccc(NC(=O)Nc2cc(-c3cc(F)ccc3C(=O)O)cc3c2O[C@H](C)[C@H]3c2ccccc2)cc1` (relative stereo) [Example 116, rel-4-fluoro-2-((2R,3S)-2-methyl-3-phenyl-7-(3-(p-tolyl)ureido)-2,3-dihydrobenzofuran-5-yl)benzoic acid], for which it took 125 nM to reach half-maximal inhibition (IC50).

With `Cc1ccc(CC(=O)Nc2cc(-c3ccccc3-c3nnn[nH]3)cc3c2OCCCC3C(C)C)cc1` (single isomer, unassigned) [25 (En. 2), N-(7-(2-(1H-tetrazol-5-yl)phenyl)-5-isopropyl-2,3,4,5-tetrahydrobenzo[b]oxepin-9-yl)-2-(p-tolyl)acetamide], it took 71.4 nM to reach half-maximal inhibition (IC50).

Take `Cc1ccc(NC(=O)Nc2cc(-c3ccccc3-c3nnn[nH]3)cc3c2OCCC(C)C3c2ccccc2)cc1` (single isomer, unassigned) [Example 46, 1-(7-(2-(1H-tetrazol-5-yl)phenyl)-4-methyl-5-phenyl-2,3,4,5-tetrahydrobenzo[b]oxepin-9-yl)-3-(p-tolyl)urea]: 0.78 nM corresponded to half-maximal inhibition (IC50).

Compound `Cc1ccc(NC(=O)Nc2cc(-c3cc(C)ccc3C(=O)O)cc3c2OCCCC3c2ccccc2)cc1` (single isomer, unassigned) [Example 68, 4-methyl-2-(5-phenyl-9-(3-(p-tolyl)ureido)-2,3,4,5-tetrahydrobenzo[b]oxepin-7-yl)benzoic acid] gave a 50% inhibitory concentration (IC50) of 14.4 nM.

`C=C[C@@H]1Oc2c(NC(=O)Nc3ccc(C)cc3)cc(-c3ccccc3-c3nn[nH]n3)cc2[C@@H]1c1ccccc1` (racemic) [Example 86, (+/−)-1-((cis)-5-(2-(1H-tetrazol-5-yl)phenyl)-3-phenyl-2-vinyl-2,3-dihydrobenzofuran-7-yl)-3-(p-tolyl)urea] had an IC50 of 12 nM.

Compound `Cc1ccc(-c2noc(Nc3cc(-c4ccccc4-c4nnn[nH]4)cc4c3OCCCC4c3ccccc3)n2)cc1` (single isomer, unassigned) [26 (En. 2), N-(7-(2-(1H-tetrazol-5-yl)phenyl)-5-phenyl-2,3,4,5-tetrahydrobenzo[b]oxepin-9-yl)-3-(p-tolyl)-1,2,4-oxadiazol-5-amine] showed a half-inhibitory concentration (IC50) of 424 nM.

`Cc1ccc(-c2nnn[nH]2)c(-c2cc(Nc3ccc(Cl)c(F)c3)c3c(c2)C(c2ccccc2)CCCO3)c1` (single isomer, unassigned) [Example 76, N-(4-chloro-3-fluorophenyl)-7-(5-methyl-2-(1H-tetrazol-5-yl)phenyl)-5-phenyl-2,3,4,5-tetrahydrobenzo[b]oxepin-9-amine] yielded an IC50 of 8.3 nM.

With `O=C(Cc1ccccc1F)Nc1cc(-c2ccccc2-c2nnn[nH]2)cc2c1OCCCC2C1CC1` (single isomer, unassigned) [40 (En. 1), N-(7-(2-(1H-tetrazol-5-yl)phenyl)-5-cyclopropyl-2,3,4,5-tetrahydrobenzo[b]oxepin-9-yl)-2-(2-fluorophenyl)acetamide], inhibition was half-maximal at 219 nM (IC50).

Regarding `COCC(CC(=O)O)c1cc(Nc2ccc(C#N)cc2)c2c(c1)C(C1CC1)CCCO2` (single isomer, unassigned) [131 (dia. 1), 3-(9-(4-Cyanophenylamino)-5-cyclopropyl-2,3,4,5-tetrahydrobenzo[b]oxepin-7-yl)-4-methoxybutanoic acid], it took 25.6 nM to reach half-maximal inhibition (IC50).

With `CCC(C)C1CCCOc2c(NC(=O)Cc3ccc(C)cc3)cc(-c3ccccc3-c3nnn[nH]3)cc21` (single isomer, unassigned) [30 (En. 1), N-(7-(2-(1H-tetrazol-5-yl)phenyl)-5-(sec-butyl)-2,3,4,5-tetrahydrobenzo[b]oxepin-9-yl)-2-(p-tolyl)acetamide], 4.1 nM corresponded to half-maximal inhibition (IC50). Compared with the last compound, the IC50 is about 6.2-fold lower.

Take `Fc1ccc2oc(Nc3cc(-c4ccccc4-c4nnn[nH]4)cc4c3OCCCC4C3CC3)nc2c1` (stereo not shown) [Example 27, N-(7-(2-(1H-tetrazol-5-yl)phenyl)-5-cyclopropyl-2,3,4,5-tetrahydrobenzo[b]oxepin-9-yl)-5-fluorobenzo[d]oxazol-2-amine]: the IC50 was determined as 26.4 nM.

Compound `O=C(Nc1cc(-c2ccccc2-c2nnn[nH]2)cc2c1OCCCC2c1ccccc1)NC1CC1` (single isomer, unassigned) [23 (En. 1), 1-(7-(2-(1H-tetrazol-5-yl)phenyl)-5-phenyl-2,3,4,5-tetrahydrobenzo[b]oxepin-9-yl)-3-cyclopropylurea] yielded an IC50 of 3500 nM. Against the preceding compound, the IC50 is about 130-fold higher.

In turn, `C=C(C)C1Oc2c(NC(=O)Nc3ccc(C)cc3)cc(-c3ccc(OC)c(C(=O)O)c3)cc2C1c1ccccc1` (racemic) [Example 97] came in with a half-inhibitory concentration (IC50) of 1800 nM.

`Cc1ccc(NC(=O)Nc2cc(-c3ccccc3-c3nnn[nH]3)cc3c2OCCC(C)C3c2ccccc2)cc1` (single isomer, unassigned) [Example 44, 1-(7-(2-(1H-tetrazol-5-yl)phenyl)-4-methyl-5-phenyl-2,3,4,5-tetrahydrobenzo[b]oxepin-9-yl)-3-(p-tolyl)urea] showed an IC50 of 1.7 nM.

As for `Cc1ccc(NC(=O)Nc2cc(-c3ccccc3-c3nnn[nH]3)cc3c2OCCCC3c2ccccc2)nc1` (stereo not shown) [Example 17, 1-(7-(2-(1H-tetrazol-5-yl)phenyl)-5-phenyl-2,3,4,5-tetrahydrobenzo[b]oxepin-9-yl)-3-(5-methylpyridin-2-yl)urea], the IC50 is 53 nM.

The compound `Cc1nc2ccc(Nc3cc(-c4ccccc4-c4nnn[nH]4)cc4c3OCCCC4c3ccccc3)cc2s1` (single isomer, unassigned) [Example 71, N-(7-(2-(1H-tetrazol-5-yl)phenyl)-5-phenyl-2,3,4,5-tetrahydrobenzo[b]oxepin-9-yl)-2-methylbenzo[d]thiazol-6-amine] displayed a concentration for half-maximal inhibition (IC50) of 3.1 nM.

As to `Cc1ccc(NC(=O)Nc2cc(-c3ccccc3-c3nnn[nH]3)cc3c2OCCC(C)C3c2ccccc2)cc1` (single isomer, unassigned) [Example 45, 1-(7-(2-(1H-tetrazol-5-yl)phenyl)-4-methyl-5-phenyl-2,3,4,5-tetrahydrobenzo[b]oxepin-9-yl)-3-(p-tolyl)urea], the IC50 is 106 nM and 288 nM.

In turn, `Cc1ccc(CC(=O)Nc2cc(-c3ccccc3-c3nnn[nH]3)cc3c2OCCCC3C2CC2)c(F)c1` (single isomer, unassigned) [39 (En. 1)] returned an IC50 of more than 6000 nM.
